The results in this text go back to PubChem BioAssay (NCI).

Some test systems named below: BT-549 breast; HS 578T breast; MDA-MB-435; T-47D breast; MDA-N.
Assay in all cases: growth of human tumour cells (NCI), 48 h

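1) Cells in 96-well plates. 2) Compound, 48 h, 5 concentrations. 3) Linear interpolation between surrounding doses. 4) Unreached endpoint = highest concentration. GI50 = concentration required for 50% inhibition of growth. TGI: total growth inhibition.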

Turning to `COC(=O)c1c2c(c(C)[n+]([O-])c1C)C(=O)C=C(NCc1cccc(Cl)c1)C2=O`, the GI50 with BT-549 breast is 1.26 µM; in the experiment on HS 578T breast it was 1.77 µM; in the experiment on MDA-MB-435 it was 0.116 µM; in the experiment with T-47D breast it was 0.187 µM. For the same compound, the TGI with BT-549 breast came out at 2.63 µM; in the experiment on HS 578T breast, 6.79 µM; in the experiment with MDA-MB-435 it was 0.251 µM; in the experiment with T-47D breast it was 1.71 µM.

For `C[C@H]1COCCN1c1cc(C2(S(=O)(=O)C3CC3)CC2)nc(-c2ccc(NC(=S)NCCO)cc2)n1`, the GI50 with BT-549 breast was less than 0.012 µM; with HS 578T breast, 0.0109 µM; in the experiment with MDA-MB-435, 0.0244 µM; in the experiment with T-47D breast, less than 0.01 µM. Besides, the TGI turned out to be 0.134 µM with BT-549 breast, 0.0643 µM with HS 578T breast, 1.19 µM in the experiment on MDA-MB-435 and 0.0224 µM in the experiment with T-47D breast.

In the case of `CCCCCCCCCCCCCCCCCCNC(=S)/N=C/c1c(O)c2ccccc2[nH]c1=O`, the TGI in the experiment with BT-549 breast was found to be 38 µM; in the experiment with MDA-MB-435, 42.3 µM; in the experiment with MDA-N it was 35.3 µM; in the experiment on T-47D breast, 90.5 µM.

Regarding `CC(=O)OC12c3ccccc3-c3ccccc3C1C(C(=O)O)C2C(=O)O` (stereo not given), the TGI in the experiment on HS 578T breast, in the experiment on MDA-MB-435 and in the experiment with T-47D breast was greater than 10 µM in each case.

For the compound `O=C(c1ccco1)c1c(C(F)(F)F)n([O-])c2cc(C(F)(F)F)ccc2[n+]1=O`, the GI50 was 0.486 µM in the experiment with BT-549 breast, 1.36 µM in the experiment with HS 578T breast, 1.47 µM in the experiment with MDA-MB-435 and 0.355 µM in the experiment with T-47D breast. The figures for the TGI in the experiment on BT-549 breast, with MDA-MB-435 and in the experiment with T-47D breast were 1.09 µM, 3.1 µM and 1.47 µM, respectively.

Turning to `N#C/C(=N\Nc1ccccc1)C(=O)Nc1cc(-c2ccccc2)nn1-c1ccccc1`, the GI50 in the experiment on BT-549 breast was 2.2 µM; in the experiment on HS 578T breast it was 3.5 µM; with MDA-MB-435, 3.05 µM; with T-47D breast, 2.03 µM. Also, the TGI in the experiment on BT-549 breast is 6.47 µM; with HS 578T breast, greater than 100 µM; with MDA-MB-435, greater than 100 µM; with T-47D breast, 8.11 µM.

Take `CO/N=C(\C([O-])=N\[n+]1cnn(CC(=O)OC(C)(C)C)c1)c1csc(NC(c2ccccc2)(c2ccccc2)c2ccccc2)n1`: the TGI in the experiment on BT-549 breast, in the experiment with HS 578T breast, in the experiment with MDA-N and in the experiment with T-47D breast was greater than 10 µM each time.

Regarding `C=C1C(=O)O[C@H]2[C@H]1CC/C(Cn1cc(-c3ccc(F)cc3)nn1)=C\CC[C@@]1(C)O[C@@H]21`, the values for the GI50 with BT-549 breast, in the experiment on HS 578T breast and with MDA-MB-435 were 0.838 µM, 3.68 µM and 1 µM, respectively. Moreover, the TGI amounted to 2.13 µM in the experiment on BT-549 breast, 22.6 µM in the experiment on HS 578T breast and 2.39 µM in the experiment on MDA-MB-435.

Consider `COc1ccc(NC(=O)c2sc3nc(C)c(C(=O)/C=C/c4cccc(OC)c4)cc3c2N)cc1`, for which the GI50 in the experiment on BT-549 breast is 1.02 µM; in the experiment with HS 578T breast, 4.5 µM; with MDA-MB-435, 1.35 µM; with T-47D breast it was 1.46 µM. Moreover, the TGI in the experiment with BT-549 breast was 2.67 µM; in the experiment on HS 578T breast, greater than 50 µM; in the experiment on MDA-MB-435 it was 6.78 µM; with T-47D breast it was greater than 50 µM.

Regarding `O=c1oc2cc(OC/C(=N/O)c3ccc(F)cc3)ccc2c2ccccc12`, the GI50 with BT-549 breast is 21.7 µM; in the experiment with HS 578T breast, 28.8 µM; with MDA-MB-435 it was 17.3 µM; with T-47D breast it was 35.4 µM. Also, the TGI in the experiment on BT-549 breast is 42.3 µM; in the experiment on HS 578T breast, 63.1 µM; with MDA-MB-435, 38.7 µM; in the experiment with T-47D breast, greater than 100 µM.

Take `CCOC(=O)C(=CNC(=S)N=Nc1c(O)[nH]c2ccccc12)C(=O)OCC`: the TGI in the experiment on HS 578T breast, in the experiment with MDA-MB-435, with MDA-N and with T-47D breast was greater than 100 µM each time.

`O=C(CI)Nc1ccc(O)c2ccccc12`: the GI50 with BT-549 breast is 2.28 µM; in the experiment on HS 578T breast, 2.45 µM; with MDA-MB-435, 1.9 µM; in the experiment on T-47D breast, 1.7 µM. For the same compound, the TGI stood at 6.25 µM in the experiment on BT-549 breast, 8.49 µM in the experiment with HS 578T breast, 4.34 µM in the experiment on MDA-MB-435 and 4.27 µM with T-47D breast.

Take `COc1cc(C(=O)O[C@H](C(=O)NCCN(C)CCNC(=O)[C@@H](OC(=O)c2cc(OC)cc3c(C)cccc23)[C@]2(C)CO2)[C@]2(C)CO2)c2cccc(C)c2c1`: the GI50 is 0.342 µM in the experiment on BT-549 breast, 0.304 µM in the experiment with HS 578T breast, less than 0.01 µM in the experiment with MDA-MB-435 and 0.0924 µM in the experiment on T-47D breast. In addition, the TGI in the experiment with BT-549 breast was 4.85 µM; with HS 578T breast it was greater than 100 µM; with MDA-MB-435, 0.0398 µM; in the experiment on T-47D breast, 1.7 µM.

Take `Cc1[nH]c(N)nc(=S)c1CCC(=O)O`: the TGI in the experiment with BT-549 breast, with HS 578T breast, in the experiment with MDA-MB-435 and with MDA-N was greater than 100 µM throughout.

On to `CC1(C)OC(=O)C(C#N)=C1C[n+]1ccccc1`, for which the TGI with HS 578T breast, in the experiment with MDA-MB-435, in the experiment on MDA-N and in the experiment on T-47D breast was greater than 10 µM each time.

For the compound `COC1=CC(c2ccc[nH]2)=N/C1=C\c1[nH]c(C)c(CC(=O)OCc2ccccc2)c1C`, the GI50 in the experiment on BT-549 breast was 0.432 µM; in the experiment on HS 578T breast, 0.362 µM; in the experiment on MDA-MB-435 it was 0.369 µM; in the experiment on T-47D breast, 0.251 µM. The TGI with BT-549 breast came out at 3.08 µM; in the experiment on HS 578T breast, 2.26 µM; in the experiment on MDA-MB-435, 1.42 µM; in the experiment with T-47D breast, 1.08 µM.

With `NC(=O)c1cccc(OCC(O)CO)c1` (stereo not given), the TGI in the experiment on BT-549 breast, in the experiment on HS 578T breast, with MDA-N and with T-47D breast was greater than 100 µM in each case.

Turning to `O=C1C=Cc2c1ccc1ccccc21`, the GI50 in the experiment with BT-549 breast is 31.4 µM; in the experiment with HS 578T breast it was 18.4 µM; with MDA-MB-435, 14.9 µM; in the experiment with T-47D breast, 37.9 µM. Besides, the TGI in the experiment on BT-549 breast is 89.9 µM; in the experiment with HS 578T breast it was 54.6 µM; in the experiment on MDA-MB-435, 42.9 µM; in the experiment on T-47D breast, greater than 100 µM.

On to `Cn1c(-c2ccccc2)c(/C=C/C2=[N+](C)c3ccccc3C2(C)C)c2ccccc21`, for which the GI50 is 0.476 µM in the experiment with BT-549 breast, 1.08 µM in the experiment with HS 578T breast, 0.486 µM in the experiment with MDA-MB-435 and 0.34 µM in the experiment with T-47D breast. The TGI in the experiment with BT-549 breast came to 3.71 µM; with HS 578T breast it was 16.6 µM; with MDA-MB-435, 4.02 µM; in the experiment on T-47D breast, 9.07 µM.
